Source: patent US10231985B2, “Compounds and compositions comprising such compounds for the prevention or treatment of dyslipidaemias” (CENTRE NATIONAL DE LA RECHERCHE SCIENTIFIQUE, priority 2013, dated 2019)

Key:
[1] = test system: hem1Δ yeasts grown under SFA accumulation conditions; assay: Restoration of growth of lipointoxicated hem1Δ yeast; type: cell-based, Saccharomyces cerevisiae; conditions: after 3 days, increasing concentrations
Description: The strain bearing the hem1Δ mutation is grown, under aerobic conditions, with shaking and at 28° C., in liquid YPG^A medium (YPG (1% yeast extract (w/v), 1% peptone (w/v) and 2% glucose (w/v)) supplemented with 80 μg/ml 6-aminolevulinic acid (ALA)). Lipointoxication by saturated fatty acids (SFA) is caused by depletion of unsaturated fatty acids (UFA), the synthesis of which is dependent on the presence of heme (the prosthetic group of the Ole1p enzyme in particular), by transfer to YPG^+ medium (YPG supplemented with 80 μg/ml ergosterol to compensate for the sterol depletion obtained under this condition). Lipointoxication can be induced on solid YPG^+ medium+2% agar (w/v) by transferring 3500 cells (hem1Δ from preculture in YPG^A) per cm^2 or, alternatively, in liquid medium by inoculating 2×10^6 cells/ml YPG^+. Classically, the effects of SFA lipointoxication are analyzed 7 hours after the transfer to YPG^+ medium. The ability of a compound to counter the deleterious effects of SFA lipointoxication, in turn, is evaluated successively to the addition of this compound on (or in) the YPG^+ transfer medium, after seeding with the cells.
Following the induction of SFA lipointoxication (for hem1Δ grown on solid medium) 5 μl drops of solutions of the various compounds at 10 mM in dimethylsulfoxide (DMSO) or ethanol (EtOH) are deposited on the surface of the agar. The ability of a compound to counter the arrest of lipid-induced cell growth is estimated by the appearance of a halo of hem1Δ colonies at the site of the deposition of said compound after 3 days of culture at 28° C. (see Deguil et al., 2011).
Jointly with the induction of SFA lipointoxication (for hem1Δ in liquid medium), the various compounds are added to the cultures at an initial concentration of 200 μM. Proliferation is monitored by spectrometric measurement of cell density, at regular time intervals (every hour over the duration of the observation). At a wavelength of 600 nm, one optical density unit (OD600 nm) corresponds to 2×10^7 cells/ml.

[2] = test system: QM strain (cells not synthesizing triglycerides); assay: Toxicity test on QM strain (growth inhibition halos); type: cell-based, Saccharomyces cerevisiae; conditions: 5 μl drops on agar, after three days
Description: Drops (5 μl) of OAG, LPA or oleic acid were deposited, from stock solutions at the indicated concentrations, on the surface of an agar medium over which the QM strain had been spread beforehand. […] These halos are, however, not observed in the presence of LPA or of OAG.
In parallel, wild-type (WT) and quadruple mutant (QM) strains are grown, under aerobic conditions, with shaking and at 28° C., in liquid YPG medium before seeding 3500 cells per cm^2 of YPG+2% agar (w/v). Following this transfer to solid medium, 1 μl drops of 1, 10 and 100 mM solutions of the various compounds in DMSO or EtOH are deposited on the agar surface. Separately, DMSO and EtOH are also deposited in order to evaluate the intrinsic toxicity of these two solvents. After 3 days of culture at 28° C., the toxicity of the compounds tested is evaluated by comparing the growth inhibition halo diameters obtained for the depositions of pure solvent with those of the depositions of the various concentrations of the compounds tested. Unlike the WT strain, the QM strain is incapable of buffering excess exogenous oleic acid in the form of neutral lipids (triglycerides (TG) or esterified sterols (ES)) in lipid droplets.

[3] = test system: MIN6 pancreatic β-cells; assay: Monitoring of insulin maturation (Western blot, anti-insulin); type: cell-based, mouse; conditions: MIN6, 400 μM palmitic acid 48 hours, 200 μM compound during final 24 hours
Description: Pancreatic β-cells, MIN6, were grown under control conditions (0) or, alternatively, in the presence of an exogenous source of 400 μM palmitic acid (P), for 48 hours, as described by Boslem et al. (2011), in order to generate lipointoxication conditions. During the final 24 hours of growth, 200 μM OAG, LPA or mannide monooleate was added or not as mentioned.
In the manner of that described above for the lipointoxication of BRIN-BD11 cells, the MIN6 cell line is grown in complete DMEM-High Glucose medium […], supplemented with 10% (v/v) fetal calf serum (FCS), 15 mM HEPES, 100 U/ml penicillin and 100 μg/ml streptomycin, and lipointoxication is induced by exposure to 400 μM palmitic acid, coupled to BSA (0.92% (w/v) final), for 48 hours, with or without the addition of the compound of interest (see Boslem et al., 2011). The cells are then collected and a Western blot is carried out as indicated above, using anti-insulin antibodies in order to follow the maturation of proinsulin to insulin.

[4] = test system: lipase; assay: Resistance to hydrolytic activity of lipases (thin-layer chromatography); type: in vitro ADME; conditions: 10 U of lipase, 30 minutes, 37° C.
Description: OAG (15 μmol) and N,N-diethanololeamide were subjected (+) or not (−) to exposure to 10 U of lipase for 30 minutes at 37° C. Following the incubation, the lipid species were extracted from the samples before being separated by thin-layer chromatography.

Structure (SMILES) | Restoration of the growth of hem1Δ yeasts [1] | Growth inhibition halos on QM strain [2] | Maturation of proinsulin to insulin [3] | Hydrolysis by lipases [4]
CCCCCCCC/C=C\CCCCCCCC(=O)OC[C@@H](O)COP(=O)(O)O [LPA, 1-oleoyl-sn-glycerol-3-phosphate] | restore the growth | not observed | only mannide monooleate restores | 
CCCCCCCC/C=C\CCCCCCCC(=O)OC[C@H](CO)OC(C)=O [OAG, 1-oleoyl-2-acetyl-sn-glycerol] | restore the growth | not observed | only mannide monooleate restores | unlike OAG
